{"source": "patent US20170136001A1", "about": "“METHOD OF TREATING A VIRAL INFECTION USING ELVITEGRAVIR COMBINATIONS” (priority 2007, published 2017)", "key": {"[1]": {"assay": "Study 1: steady-state pharmacokinetic interaction between atazanavir/r and the Compound (200 mg)", "assay_type": "in vivo, human", "description": "This study evaluated the safety and steady-state pharmacokinetics of the coadministered Compound and ATV/r."}, "[2]": {"assay": "Study 2: steady-state pharmacokinetic interaction between atazanavir/r and the Compound (85 mg test, 150 mg reference)", "assay_type": "in vivo, human", "description": "Consideration was given to achieving equivalent Compound exposures in patients receiving and not receiving atazanavir using pharmacokinetic (bio-) equivalence comparisons (Pharsight Corporation, Mountain View, Calif., USA). Consideration was also given to minimizing the number of individuals with extreme outliers in (low or high) exposures."}, "[3]": {"assay": "Example 2: pharmacokinetic interaction, EVG/ATV 300/400 mg versus EVG/r 300/100 mg, with midazolam CYP3A probe", "settings": "midazolam oral syrup 5 mg with last dose; EVG/ATV vs. EVG/r", "experimental": "This study evaluated the safety and steady-state pharmacokinetics of the co-administered Compound and ATV.\nHealthy subjects received EVG/r 300/100 mg or EVG/ATV 300/400 mg in a randomized, crossover manner for 10 days each, with the last dose being coadministered with the CYP3A probe substrate midazolam (oral syrup; 5 mg) and pharmacokinetic (PK) sampling performed. […] ATV, midazolam, and ritonavir pharmacokinetics were also determined for descriptive statistics."}}}
{"smiles": "COc1cc2c(cc1Cc1cccc(Cl)c1F)c(=O)c(C(=O)O)cn2[C@H](CO)C(C)C", "note": "[the Compound, 6-(3-chloro-2-fluorobenzyl)-1-[(2S)-1-hydroxy-3-methylbutan-2-yl]-7-methoxy-4-oxo-1,4-dihydroquinoline-3-carboxylic acid]", "values": [{"measurement": "AUCtau % GMR (90% CI)", "setting": "[1]; Study 1, coadministration (the Compound 200 mg + ATV/r 300/100 mg QD) : alone, 14 days, healthy subjects", "result": 200, "unit": "%"}, {"measurement": "the Compound exposures upon coadministration with ATV/r", "setting": "[1]; coadministration with ATV/r", "result": "elevated"}, {"measurement": "systemic exposure", "setting": "[2]; 85 mg of the Compound with ritonavir-boosted atazanavir compared with the 150 mg dose of the Compound alone", "result": "equivalent"}]}
{"smiles": "COC(=O)N[C@H](C(=O)N[C@@H](Cc1ccccc1)[C@@H](O)CN(Cc1ccc(-c2ccccn2)cc1)NC(=O)[C@@H](NC(=O)OC)C(C)(C)C)C(C)(C)C", "note": "[ATV, 1-[4-(pyridine-2-yl)-phenyl]-4(S)-2,5-bis-[N—(N-methoxycarbonyl-(L)-tert-leucyl)amino]-6-phenyl-2-axahexane]", "values": [{"measurement": "Cmax % GMR (90% CI)", "setting": "[2]; Study 2, coadministration (the Compound 85 mg + ATV/r 300/100 mg QD) : alone (the Compound reference 150 mg), 14 days, healthy subjects", "result": 96.0, "unit": "%"}, {"measurement": "ATV exposures", "setting": "[2]; with the reduced 85 mg dose of the Compound", "result": "not affected"}]}
{"smiles": "Cc1ncc2n1-c1ccc(Cl)cc1C(c1ccccc1F)=NC2", "note": "[midazolam]", "values": [{"measurement": "midazolam AUCinf geometric mean ratio (90% CI)", "setting": "[3]", "result": "89.5 (80.7, 99.3)"}, {"measurement": "midazolam Cmax geometric mean ratio (90% CI)", "setting": "[3]", "result": "98.8 (89.6, 109)"}]}
